Source: patent US20160160213A1, “METHODS OF TREATING CANCER AND PREVENTING CANCER DRUG RESISTANCE” (Genentech, Inc., priority 2013, published 2016)
“Also recorded” adds a separate entry of the source.

How the values were obtained:
EZH2 = EZH2 (Homo sapiens, UniProt Q15910); details: read-out: EZH2 Ki^app; cited from earlier work
H3K27me3 = details: cited from earlier work
[1] = system: EZH2 levels and trimethylation of lysine 27 on histone H3; details: cultured human acute myeloid leukemia, dose-dependent manner (0.2-1 μM); cited from earlier work
PC9 cells = test: DZNep cell treatment, PC9 parental/DTP cell viability (CyQUANT Direct); format: cell-based, human
Experimental: DZNep was tested at concentrations ranging from 0.625 to 40 μM (A). PC9 cells were treated for 48 hours either with DZNep (DZNep/Media or DZNep/erlotinib) or DMSO control (DMSO/Media or DMSO/erlotinib) before treatment with (DTP) (DMSO/erlotinib or DZNep/erlotinib) or without erlotinib (parental)(DMSO/Media or DZNep/Media) for 72 hours. Cell number was determined after a 48-72 hours recovery phase in media alone. Effect of DZNep at 5 (B) and 0.625 μM (C) on PC9 parental (solid gray bars: media conditions) or DTP (diamond bars: erlotinib condition) cell number.
PC9 cells were seeded in black 96 well clear bottom plates (Coming, catalog #3603) at 1000 cells per well before to be treated with various concentration of 3-deazaneplanocin A (DZNep) from 40 down to 0.625 μM. After 48 hours of DZNep treatment the media was replaced with fresh media alone or in presence of 1 μM erlotinib. After 72 hours of incubation the media +/− erlotinib was then replaced with fresh media to enable recovery of the drug tolerant persisters (DTPs) that survived after the drug treatment. After 3 days recovery phase, final cell viability was measured using CyQUANT Direct cell proliferation assay (Molecular Probes) according to the manufacturer protocol. CyQUANT fluorescent signal was detected using a GE IN Cell Analyzer 2000 (4× objective) and quantified as number of cell per well using an image analysis algorithm developed using GE Developer Tollbox 1.9.1. Screening data were subsequently processed in Microsoft Excel. The entire Epi300 siRNA screen was run on each cell line twice in completely independent conditions.

SKBR3 cells = test: TSA on SKBR3 drug tolerant cells (radiotherapy or lapatinib); format: cell-based; details: SKBR3, 2.5 Gy and 10 Gy, 25 nM TSA
Experimental: FIG. 16A, FIG. 16B and FIG. 16C | DTPs in a variety of models display increased sensitivity to HDAC inhibitors. (A) SKBR3 treated with 2.5 Gy in media alone or presence of 25 nM of the HDAC inhibitor TSA. (B) SKBR3 treated with 10 Gy in media alone or presence of 25 nM of the HDAC inhibitor TSA. (C) SKBR3 treated with 1 μM Lapatinib in media alone or presence of 25 nM of the HDAC inhibitor TSA.
The role of histone deacetylases was further test in additional models to elucidate their role in drug tolerance. The class I and II HDAC inhibitor TSA was tested in SKBR3 cells in combination with radiotherapy at 2.5 Gy and 10 Gy.

PC9 xenografts = test: PC9 xenograft tumor study; format: in vivo; details: nude mice
Experimental: FIG. 18 | Effect of HDAC Inhibition using TSA (0.5 mg/kg) on erlotinib response in PC9 xenografts.
PC9 cells were cultured in growth media (RPMI 1640, 10% heat-inactivated fetal calf serum, 2 mM L-glutamine) to 80% confluency and then trypsinized, washed once with PBS, and resuspended in either Hank's Balanced Salt Solution (HBSS) or a 1:1 mixture of HBSS with matrigel [growth factor reduced; catalog #356231 (BD Biosciences, West Grove, Pa.)] to a final concentration of 5×10^7 cells/ml. Each xenograft tumor model was established using 5×10^6 cells (100 μL) inoculated subcutaneously (s.c.) in the rear right flank of immunocompromised mice. PC-9 and PC-9-GFP cells were implanted in HBSS with matrigel in nude (nu/nu) mice (Charles River Laboratories, Hollister, Calif.). When tumor volumes reach approximately 100-200 mm^3, mice were separated into groups of animals with similarly sized tumors, and treatment was initiated the day after grouping. Mice were dosed for 5 days a week (QD) oral gavage (PO) with erlotinib (50 mg/kg in 7.5% Captisol for first 4 doses then lowered to 35 mg/kg in 7.5% Captisol) and/or TSA (0.5 mg/kg) with appropriate vehicle control. […]

PC9 DTP [2] = test: HDAC biased inhibitors on PC9 DTP with erlotinib, 30 days; format: cell-based, human; details: G946 50 nM, G877 5 μM, erlotinib 1 μM
Source text: FIG. 17A, FIG. 17B and FIG. 17C | HDAC (1), 2 and 3 are involved in the establishment of drug tolerance. siRNA against HDAC2 and 3 as well as inhibitors that are HDAC1/2 or 3 biased disrupt the drug-tolerant state. (A-B) Effect of siRNA knockdown of essential components of HDAC2 and HDAC3 on PC9 parental (light grey bars: media conditions) or DTP (dark grey: erlotinib condition) cell number using 4 different specific siRNAs per gene. Data are presented along with the data for the non-targeting (NTC) and siTOX controls in similar treatment conditions. (C) Effect of (C1) G946, HDAC1/2 biased inhibitor, and (C2) G877, HDAC3 biased inhibitor. G946 and G877 were tested at concentrations 50 nM and 5 μM, respectively. PC9 cells were treated with (DTP) (DMSO/erlotinib or HDAC inhibitor/erlotinib) (C1 and C2) for 30 days or without erlotinib (parental) (DMSO/Media or HDAC inhibitor/Media) (data not shown). Erlotinib concentration 1 μM.
To further investigate the role of HDACs in the establishment of drug tolerance, siRNA against HDAC2 and 3 as well as inhibitors that are HDAC1/2 or 3 biased were tested for their ability to disrupt the drug-tolerant state.

PC9 DTP [3] = test: EZH2 inhibitors on PC9 DTP cell growth with erlotinib (IncuCyte, Giemsa); format: cell-based, human; details: erlotinib 1 μM; GSK126 0.1-2.5 μM; EPZ-6438 0.05-1.5 μM; day 9 and 30 days
Experimental: (A) Effect of siRNA knockdown of EZH2 on PC9 parental (light grey bars: media conditions) or DTP (dark grey: erlotinib condition) cell number using 8 different specific siRNAs (Dharmacon siGenome (×4) and On-Target Plus (OTP)(×4)) per gene. […] (B) Effect of GSK126 was tested at a concentration 1 μM.

EVSAT DTP = test: EZH2 inhibitors on EVSAT DTP cell growth with PI3K inhibitor (IncuCyte); format: cell-based; details: GDC-0908 2 μM; GSK126 0.1, 0.5, 2.5 μM; EPZ-6438 0.05, 0.1, 0.5 μM
H3K27me3 in EVSAT DTPs = test: Histone H3K27me3 Western blot in EVSAT DTPs treated with GDC-0908; format: cell-based; details: GSK126 0.1, 0.5, 2.5 μM, EPZ-6438 0.05, 0.1, 0.5 μM, GDC-0908 2 μM
Experimental: GDC-0908 concentration 2 μM for FIG. 21A and FIG. 21B.
(§1) Cell lysates were prepared in Laemmli sample buffer and analyzed by immunoblotting as described previously. Cell lysates were analyzed using commercial antibodies against modifications on H3 (Active Motif and Cell Signaling Technologies).

H3K27me3 in PC9 DTPs = test: Histone H3K27me3 Western blot in PC9 DTPs treated with erlotinib; format: cell-based, human; details: GSK126 0.1, 0.5, 2.5 μM, EPZ-6438 0.05, 0.1, 0.5, 1, 1.5 μM, erlotinib 1 μM
Experimental: FIG. 20A, FIG. 20B, FIG. 20C and FIG. 20D | EZH2 inhibitors (GSK126) disrupt the drug-tolerant state. (A) Increase in histone H3K27me^3 in PC9 DTPs treated with erlotinib is inhibited by EZH2 small molecule inhibitor (GSK126) at 0.1, 0.5, and 2.5 μM as shown by Western blot. (B) nuc-red PC9 cells were treated with DMSO/erlotinib or GSK126/erlotinib at 0.1, 0.5, or 2.5 μM (dark grey bar) or without erlotinib (DMSO/Media or GSK126/Media) (light grey bar) and analyzed IncuCyte™ at day 9 and 3, respectively. (C) nuc-red PC9 cells were treated with DMSO/erlotinib or GSK126/erlotinib at 2.5 μM for 9 days and imaged. (D) nuc-red PC9 cells were treated with DMSO/erlotinib or GSK126/erlotinib at 2.5 μM for 30 days and stained with Giemsa. Erlotinib concentration 1 μM for FIG. 20A, FIG. 20B, FIG. 20C and FIG. 20D.
(D) nuc-red PC9 cells were treated with DMSO/erlotinib or […] at 0.05, 0.1, or 1.0 μM) for 30 days and stained with Giemsa. Erlotinib concentration 1 μM for FIG. 22A, FIG. 22B, FIG. 22C and FIG. 22D.
as §1

Chain of EZH2 (Q15910 whole entry): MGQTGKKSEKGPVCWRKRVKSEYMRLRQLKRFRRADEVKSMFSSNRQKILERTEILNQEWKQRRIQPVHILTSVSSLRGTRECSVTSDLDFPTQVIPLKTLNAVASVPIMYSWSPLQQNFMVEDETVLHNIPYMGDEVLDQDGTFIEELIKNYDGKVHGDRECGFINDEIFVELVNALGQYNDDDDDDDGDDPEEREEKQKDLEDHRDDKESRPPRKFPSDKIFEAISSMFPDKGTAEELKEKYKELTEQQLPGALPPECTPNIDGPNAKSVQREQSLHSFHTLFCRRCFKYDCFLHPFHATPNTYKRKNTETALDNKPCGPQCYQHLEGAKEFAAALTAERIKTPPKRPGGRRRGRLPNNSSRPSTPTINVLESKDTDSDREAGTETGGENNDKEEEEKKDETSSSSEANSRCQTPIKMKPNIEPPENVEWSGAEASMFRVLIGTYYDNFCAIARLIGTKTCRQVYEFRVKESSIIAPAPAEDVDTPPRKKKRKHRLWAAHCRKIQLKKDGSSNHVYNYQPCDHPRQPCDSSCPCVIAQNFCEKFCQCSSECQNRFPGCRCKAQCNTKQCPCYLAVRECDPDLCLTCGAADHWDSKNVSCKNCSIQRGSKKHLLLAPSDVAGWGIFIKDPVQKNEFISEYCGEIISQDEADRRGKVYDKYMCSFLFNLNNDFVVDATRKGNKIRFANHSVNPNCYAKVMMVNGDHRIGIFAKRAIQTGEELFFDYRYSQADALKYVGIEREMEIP
Chain of EZH2 (O75530 whole entry partner): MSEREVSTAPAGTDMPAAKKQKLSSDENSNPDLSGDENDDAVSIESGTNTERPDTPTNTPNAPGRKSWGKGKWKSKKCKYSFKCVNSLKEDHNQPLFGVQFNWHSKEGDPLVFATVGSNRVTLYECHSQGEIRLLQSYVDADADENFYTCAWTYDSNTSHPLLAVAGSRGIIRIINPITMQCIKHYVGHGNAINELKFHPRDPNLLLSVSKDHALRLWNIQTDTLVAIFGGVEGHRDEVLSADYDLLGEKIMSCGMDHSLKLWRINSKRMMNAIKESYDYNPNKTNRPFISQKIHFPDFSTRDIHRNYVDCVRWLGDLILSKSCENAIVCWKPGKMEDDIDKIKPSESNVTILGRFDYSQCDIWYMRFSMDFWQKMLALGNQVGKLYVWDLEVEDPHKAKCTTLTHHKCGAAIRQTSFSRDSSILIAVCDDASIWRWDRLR
Chain of EZH2 (Q15022 whole entry partner): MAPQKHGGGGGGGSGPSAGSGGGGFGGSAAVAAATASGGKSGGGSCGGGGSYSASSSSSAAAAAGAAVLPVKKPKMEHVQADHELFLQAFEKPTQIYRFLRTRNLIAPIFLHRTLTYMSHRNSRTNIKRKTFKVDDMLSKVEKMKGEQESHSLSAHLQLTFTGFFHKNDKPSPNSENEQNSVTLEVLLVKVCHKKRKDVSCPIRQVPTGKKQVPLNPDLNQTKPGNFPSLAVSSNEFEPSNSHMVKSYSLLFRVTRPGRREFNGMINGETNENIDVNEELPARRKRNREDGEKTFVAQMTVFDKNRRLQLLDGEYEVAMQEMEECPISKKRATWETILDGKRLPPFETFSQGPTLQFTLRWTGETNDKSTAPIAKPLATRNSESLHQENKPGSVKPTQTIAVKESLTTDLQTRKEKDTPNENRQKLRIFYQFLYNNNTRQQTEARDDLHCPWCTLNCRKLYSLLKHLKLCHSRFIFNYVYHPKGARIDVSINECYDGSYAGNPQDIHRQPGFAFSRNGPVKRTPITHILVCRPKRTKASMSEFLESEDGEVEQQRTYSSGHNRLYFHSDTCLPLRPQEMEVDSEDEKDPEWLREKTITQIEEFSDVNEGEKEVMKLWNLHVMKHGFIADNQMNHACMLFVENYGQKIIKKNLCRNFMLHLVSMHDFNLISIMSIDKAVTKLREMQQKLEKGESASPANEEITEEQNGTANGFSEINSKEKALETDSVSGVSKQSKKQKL
Chain of EZH2 (Q09028 whole entry partner): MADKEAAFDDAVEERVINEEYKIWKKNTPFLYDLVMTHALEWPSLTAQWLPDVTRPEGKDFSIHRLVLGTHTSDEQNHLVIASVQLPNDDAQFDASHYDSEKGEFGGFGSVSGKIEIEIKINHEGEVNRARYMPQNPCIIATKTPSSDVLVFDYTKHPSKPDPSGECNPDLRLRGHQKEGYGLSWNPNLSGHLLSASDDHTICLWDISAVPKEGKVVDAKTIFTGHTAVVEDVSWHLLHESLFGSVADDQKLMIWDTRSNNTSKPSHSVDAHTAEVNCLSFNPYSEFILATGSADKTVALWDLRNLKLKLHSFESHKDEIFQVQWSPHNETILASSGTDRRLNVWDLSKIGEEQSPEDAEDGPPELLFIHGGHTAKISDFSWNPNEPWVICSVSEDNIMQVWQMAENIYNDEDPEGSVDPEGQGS

SMILES: Cc1cc(C)c(CNC(=O)c2cc(C3CC3)cc3c2cnn3C(C)C)c(=O)[nH]1 [Compound 2]
- Ki (EZH2): 74 ± 11 nM
- IC50 (H3K27me3): 2510 nM

SMILES: Nc1nccc2c1ncn2[C@@H]1C=C(CO)[C@@H](O)[C@H]1O [DZNep, 3-deazaneplanocin A]
- EZH2 levels and trimethylation of lysine 27 on histone H3 [1]: deplete EZH2 levels and to inhibit trimethylation of lysine 27 on histone H3
- cell killing compared to erlotinib alone (PC9 cells; DZNep 0.625 uM with 1 μM erlotinib): 75.8%
- cell killing compared to erlotinib alone (PC9 cells; DZNep 5 uM with 1 μM erlotinib): 87.5%
- effect by itself on PC9 DTP cell viability (PC9 cells; DZNep 0.625 and 5 uM, without erlotinib): not effect
- cell viability in media alone (PC9 cells; DZNep 0.625 to 10 uM, media alone): minimum impact
- PC9 DTP cell viability in combination with erlotinib (PC9 cells; DZNep concentrations as low as 0.625 uM, 1 μM erlotinib): very significantly decrease

SMILES: CCCc1cc(C)[nH]c(=O)c1CNC(=O)c1cc(-c2ccc(N3CCN(C)CC3)nc2)cc2c1cnn2C(C)C [Compound 4]
- Ki (EZH2): 0.6 ± 0.05 nM
- IC50 (H3K27me3): 79 ± 7 nM

SMILES: CC(/C=C/C(=O)NO)=C\[C@@H](C)C(=O)c1ccc(N(C)C)cc1 [TSA, Trichostatin A]
- effect on radiotherapy drug tolerant cells (SKBR3 cells): significant effect and eliminated radiotherapy drug tolerant cells
- tumor growth, TSA alone (PC9 xenografts; TSA 0.5 mg/kg): no effect
- tumor relapse, combination of erlotinib+TSA (PC9 xenografts; TSA 0.5 mg/kg with erlotinib 50 then 35 mg/kg PO): substantial delay in tumor relapse

SMILES: CC(=O)Nc1ccc(C(=O)Nc2cc(-c3cccs3)ccc2N)cc1 [Compound G946]
- cell growth of PC9 DTP with erlotinib (PC9 DTP [2]): effective in reducing cell growth

SMILES: CC[C@H](C)n1cc(C)c2c(C(=O)NCc3c(C)cc(C)[nH]c3=O)cc(-c3ccc(N4CCNCC4)nc3)cc21 [GSK126, (S)-1-(sec-butyl)-N-((4,6-dimethyl-2-oxo-1,2-dihydropyridin-3-yl)methyl)-3-methyl-6-(6-(piperazin-1-yl)pyridin-3-yl)-1H-indole-4-carboxamide]
- cell growth of PC9 DTP with erlotinib (PC9 DTP [3]): effective in reducing cell growth in a dose dependent manner
- cell growth of EVSAT DTP with PI3 kinase inhibitor (EVSAT DTP): effective in reducing cell growth in a dose dependent manner
- histone H3K27me3 (H3K27 trimethylation) in EVSAT DTPs treated with GDC-0908 (H3K27me3 in EVSAT DTPs): effective in reducing H3K27 trimethylation; also recorded: inhibited
- histone H3K27me3 (H3K27 trimethylation) in PC9 DTPs treated with erlotinib (H3K27me3 in PC9 DTPs): effective in reducing H3K27 trimethylation; also recorded: inhibited

SMILES: CCN(c1cc(-c2ccc(CN3CCOCC3)cc2)cc(C(=O)NCc2c(C)cc(C)[nH]c2=O)c1C)C1CCOCC1 [EPZ-6438, N-((4,6-dimethyl-2-oxo-1,2-dihydropyridin-3-yl)methyl)-5-(ethyl(tetrahydro-2H-pyran-4-yl)amino)-4-methyl-4′-(morpholinomethyl)-[1,1′-biphenyl]-3-carboxamide]
- histone H3K27me3 (H3K27 trimethylation) in EVSAT DTPs treated with GDC-0908 (H3K27me3 in EVSAT DTPs): effective in reducing H3K27 trimethylation; also recorded: inhibited
- histone H3K27me3 (H3K27 trimethylation) in PC9 DTPs treated with erlotinib (H3K27me3 in PC9 DTPs): effective in reducing H3K27 trimethylation; also recorded: inhibited

SMILES: Cc1cc(C)c(CNC(=O)c2cc(-c3ccnc(N4CCN(C)CC4)c3)cc3c2cnn3C(C)C)c(=O)[nH]1 [Compound 5]
- Ki (EZH2): 14 ± 5 nM
- IC50 (H3K27me3): 2000 nM

SMILES: Cc1ccc(C(=O)NCCCCCC(=O)Nc2ccc(F)cc2N)cc1 [Compound G877]
- cell growth of PC9 DTP with erlotinib (PC9 DTP [2]): effective in reducing cell growth

SMILES: CCCc1cc(C)[nH]c(=O)c1CNC(=O)c1cc(-c2ccnc(N3CCN(C)CC3)c2)cc2c1cnn2C(C)C [Compound 6]
- IC50 (H3K27me3): 174 ± 84 nM
